Measurements: patent publication US10196364B2, “Pyrimidine carboxamides as sodium channel blockers” (Purdue Pharma L.P., priority 2013, dated 2019)
Like-named read-outs stand apart in the source and are kept apart here.

What was measured:
Format in all cases: cell-based
hNav1.7 = hNav1.7 (Homo sapiens, UniProt Q15858); assay: Electrophysiology (EP) whole-cell patch clamp assay in hNav1.7 expressing HEK-293 cells; conditions: for Ki: affinity for inactivated channels, read-out: Nav1.7 Activity (μM) EP assay Ki; for Kd: resting block dissociation constant, read-out: Nav1.7 Activity (μM) EP assay Kr
hNav1.7, sequence (Q15858 1-1977 isoform Q15858-3): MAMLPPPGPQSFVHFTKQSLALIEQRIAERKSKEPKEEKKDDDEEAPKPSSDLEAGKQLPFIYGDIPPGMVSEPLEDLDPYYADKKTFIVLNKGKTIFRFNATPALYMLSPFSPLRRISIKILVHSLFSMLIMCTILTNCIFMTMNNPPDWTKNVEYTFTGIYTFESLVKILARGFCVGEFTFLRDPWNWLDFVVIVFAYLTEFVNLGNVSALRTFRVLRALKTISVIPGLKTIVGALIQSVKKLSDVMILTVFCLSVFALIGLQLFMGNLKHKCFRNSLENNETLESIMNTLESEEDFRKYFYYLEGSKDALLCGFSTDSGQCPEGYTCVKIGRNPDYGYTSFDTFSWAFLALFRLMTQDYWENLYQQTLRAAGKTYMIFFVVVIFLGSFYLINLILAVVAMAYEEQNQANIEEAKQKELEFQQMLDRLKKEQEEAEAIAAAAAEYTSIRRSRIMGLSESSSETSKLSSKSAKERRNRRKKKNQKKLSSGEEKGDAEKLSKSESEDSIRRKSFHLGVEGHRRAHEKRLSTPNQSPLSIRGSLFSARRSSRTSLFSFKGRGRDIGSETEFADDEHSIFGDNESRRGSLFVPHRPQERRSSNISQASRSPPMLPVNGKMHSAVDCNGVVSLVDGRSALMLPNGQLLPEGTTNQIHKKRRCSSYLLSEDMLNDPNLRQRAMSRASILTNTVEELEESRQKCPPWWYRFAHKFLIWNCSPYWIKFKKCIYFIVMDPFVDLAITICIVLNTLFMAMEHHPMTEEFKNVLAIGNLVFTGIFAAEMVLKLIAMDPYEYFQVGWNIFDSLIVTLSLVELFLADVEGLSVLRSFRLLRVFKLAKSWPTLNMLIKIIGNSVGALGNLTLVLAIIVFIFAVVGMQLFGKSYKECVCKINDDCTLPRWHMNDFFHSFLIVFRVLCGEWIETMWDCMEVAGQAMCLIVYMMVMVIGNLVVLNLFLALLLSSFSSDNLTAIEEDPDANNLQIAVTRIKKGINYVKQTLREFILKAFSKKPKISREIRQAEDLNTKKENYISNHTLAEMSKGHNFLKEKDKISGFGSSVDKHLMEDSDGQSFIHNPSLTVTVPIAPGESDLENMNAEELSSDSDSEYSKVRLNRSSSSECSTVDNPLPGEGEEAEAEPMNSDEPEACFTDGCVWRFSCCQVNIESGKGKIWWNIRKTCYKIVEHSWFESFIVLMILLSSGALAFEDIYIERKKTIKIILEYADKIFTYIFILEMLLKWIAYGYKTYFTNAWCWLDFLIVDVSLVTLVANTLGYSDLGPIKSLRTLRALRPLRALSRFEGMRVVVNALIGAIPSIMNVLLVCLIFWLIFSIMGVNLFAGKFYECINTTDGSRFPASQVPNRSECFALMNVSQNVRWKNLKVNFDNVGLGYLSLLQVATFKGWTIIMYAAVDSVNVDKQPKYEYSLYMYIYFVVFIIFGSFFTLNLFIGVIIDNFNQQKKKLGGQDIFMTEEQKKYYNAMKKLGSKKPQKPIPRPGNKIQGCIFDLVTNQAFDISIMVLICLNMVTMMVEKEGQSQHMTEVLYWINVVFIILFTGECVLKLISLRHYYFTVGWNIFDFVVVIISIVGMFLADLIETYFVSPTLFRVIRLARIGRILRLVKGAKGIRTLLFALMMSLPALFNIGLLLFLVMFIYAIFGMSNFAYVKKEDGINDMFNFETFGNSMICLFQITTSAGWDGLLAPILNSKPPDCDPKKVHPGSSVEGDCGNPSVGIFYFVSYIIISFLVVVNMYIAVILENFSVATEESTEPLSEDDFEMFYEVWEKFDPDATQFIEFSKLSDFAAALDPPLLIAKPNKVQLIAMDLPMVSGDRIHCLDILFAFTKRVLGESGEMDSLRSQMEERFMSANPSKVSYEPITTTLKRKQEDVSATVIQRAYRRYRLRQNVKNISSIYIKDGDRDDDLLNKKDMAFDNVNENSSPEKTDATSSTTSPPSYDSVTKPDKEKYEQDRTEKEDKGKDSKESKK
Procedure: The hNav1.7 expressing HEK-293 cells were plated on 35 mm culture dishes pre-coated with poly-D-lysine in standard DMEM culture media (Mediatech, Inc., Herndon, Va.) and incubated in a 5% CO2 incubator at 37° C. Cultured cells were used approximately 12-48 h after plating.
On the day of experimentation, the 35 mm dish was placed on the stage of an inverted microscope equipped with a perfusion system that continuously perfuses the culture dish with fresh recording media. A gravity driven superfusion system was used to apply test solutions directly to the cell under evaluation. This system consists of an array of glass pipette glass connected to a motorized horizontal translator. The outlet of the shooter was positioned approximately 100 μm from the cell of interest.
Whole cell currents were recorded using the whole-cell patch clamp configuration using an Axopatch 200B amplifier (Axon Instruments, Foster City Calif.), 1322A A/D converter (Axon Instruments) and pClamp software (v. 8; Axon Instruments) and stored on a personal computer. Gigaseals were formed and the whole-cell configuration was established in voltage clamp mode, and membrane currents generated by hNav1.7 were recorded in gap-free mode. Borosilicate glass pipettes have resistance values between 1.5 and 2.0 MΩ when filled with pipette solution and series resistance (<5 MΩ) was compensated 75-80%. Signals were sampled at 50 kHz and low pass filtered at 3 kHz.
After establishing the whole-cell configuration in voltage clamp mode, two voltage protocols were run to establish: 1) the holding potential; and 2) the test potential for each cell.
To determine a membrane potential at which the majority of channels are in the resting state, a standard steady-state inactivation (SSIN) protocol was run using 100 ms prepulses×10 mV depolarizing steps. The holding potential for testing resting block (Vh1) was 20 mV more hyperpolarized than the first potential where inactivation is observed with the inactivation protocol.
From this holding potential a standard I-V protocol was run to determine the potential at which the maximal current (Imax) was elicited. This potential was the test potential (Vt).
The compound testing protocol was a series of 10 ms depolarizations from the Vh1 (determined from the SSIN) to the Vt (determined from the I-V protocol) repeated every 10-15 seconds. […] Washout of the compound was attempted by superfusing with control solution once steady-state block was observed. The fractional response was calculated as follows: FR=I(after drug)/I(control), where I is the peak current amplitude and was used for estimating resting block dissociation constant, Kr: Kr=[drug]*{FR/(1−FR)}, where [drug] is the concentration of a drug.
To assess the block of inactivated channels the holding potential was depolarized such that 20-50% of the current amplitude was reduced when pulsed to the same Vt as above. The magnitude of this depolarization depends upon the initial current amplitude and the rate of current loss due to slow inactivation. This was the second holding potential (Vh2). The current reduction was recorded to determine the fraction of available channels at this potential (h). h=I@Vh2/Imax.
At this membrane voltage a proportion of channels are in the inactivated state, and thus inhibition by a blocker includes interaction with both resting and inactivated channels.
To determine the potency of the test compound on inactivated channels, a series of currents were elicited by 10 ms voltage steps from Vh2 to Vt every 10-15 seconds. After establishing a stable baseline, the low concentration of the compound was applied. Multiple cumulative concentrations may have to be applied to identify a concentration that will block between 40-60% of the current. Washout was attempted to re-establish baseline. Fractional responses were measured with respect to a projected baseline to determine Kapp. Kapp=[drug]*{FR/(1−FR)}, where [drug] is the concentration of a drug. […]

human Nav1.7 [1] = molecular target: T1, human Nav1.7 (Homo sapiens, UniProt Q15858); assay: FLIPR membrane potential dye assay (alternative fluorescence assay) in Nav1.7 expressing cells; conditions: Table 7
T1 sequence (Q15858 1-1977 isoform Q15858-3): as above

human Nav1.7 [2] = molecular target: T1, human Nav1.7; assay: FLIPR sodium dye assay (CoroNa Green AM Na+ dye, primary fluorescence assay) in recombinant Nav1.7/HEK293 cells; conditions: Table 6; CoroNa Green AM Na+ dye primary fluorescence assay; read-out: Nav1.7 Activity (μM) FLIPR assay IC50

IC50 (human Nav1.7 [1]) [µM]	Compound	further results
7.35	CCN(CC)Cc1cc(C(F)(F)F)ccc1Oc1ccc(-c2nc(N[C@H](C)C(N)=O)cc(C(N)=O)n2)cc1 [Cpd No. 215, (R)-6-((1-amino-1-oxopropan-2-yl)amino)-2-(4-(2-((diethylamino)methyl)-4-(trifluoromethyl)phenoxy)phenyl)pyrimidine-4-carboxamide]	Ki (hNav1.7; Table 7): 1.39 µM
1.21	CCN(CC)Cc1cc(C(F)(F)F)ccc1Oc1ccc(-c2nc(O[C@H]3CCNC3=O)cc(C(N)=O)n2)cc1 [Cpd No. 216, (S)-2-(4-(2-((diethylamino)-methyl)-4-(trifluoromethyl)-phenoxy)phenyl)-6-((2-oxopyrrolidin-3-yl)oxy)-pyrimidine-4-carboxamide]	–
> 20	CC(=O)c1ccc(Oc2ccc(-c3nc(N[C@H]4CCNC4=O)cc(C(N)=O)n3)cc2)nc1 [Cpd No. 217, (S)-2-(4-((5-acetylpyridin-2-yl)oxy)phenyl)-6-((2-oxo-pyrrolidin-3-yl)amino)-pyrimidine-4-carboxamide]	–
0.94	Cn1nccc1-c1cc(Oc2ccc(C(F)(F)F)cc2)ccc1-c1nc(N[C@H]2CCNC2=O)cc(C(N)=O)n1 [Cpd No. 219, (S)-2-(2-(1-methyl-1H-pyrazol-5-yl)-4-(4-(trifluoromethyl)-phenoxy)phenyl)-6-((2-oxopyrrolidin-3-yl)amino)-pyrimidine-4-carboxamide]	–
2.76	NC(=O)c1cc(N[C@H]2CCNC2=O)nc(-c2ccc(Oc3ccc(C(F)F)cn3)cc2)n1 [Cpd No. 220, (S)-2-(4-((5-(difluoromethyl)-pyridin-2-yl)oxy)phenyl)-6-((2-oxopyrrolidin-3-yl)amino)-pyrimidine-4-carboxamide]	–
> 20	NC(=O)c1cc(N[C@H]2CCNC2=O)nc(-c2ccc(N3Cc4cc(Cl)ccc4OCC3=O)cc2)n1 [Cpd No. 221, (S)-2-(4-(7-chloro-3-oxo-2,3-dihydrobenzo[f][1,4]oxazepin-4(5H)-yl)phenyl)-6-((2-oxopyrrolidin-3-yl)amino)-pyrimidine-4-carboxamide]	–
> 20	C[C@H](Nc1cc(C(N)=O)nc(-c2ccc(N3Cc4cc(Cl)ccc4OCC3=O)cc2)n1)C(N)=O [Cpd No. 222, (S)-6-((1-amino-1-oxopropan-2-yl)amino)-2-(4-(7-chloro-3-oxo-2,3-dihydrobenzo-[f][1,4]oxazepin-4(5H)-yl)phenyl)pyrimidine-4-carboxamide]	–
3.78	C[C@H](Nc1cc(C(N)=O)nc(-c2ccc(N3CCOc4cc(F)ccc43)cc2)n1)C(N)=O [Cpd No. 223, (S)-6-((1-amino-1-oxopropan-2-yl)amino)-2-(4-(7-fluoro-2,3-dihydro-4H-benzo[b][1,4]oxazin-4-yl)phenyl)pyrimidine-4-carboxamide]	–
10 to 20	C[C@H](Nc1cc(C(N)=O)nc(N2CC[C@H](Oc3ccc(C(F)(F)F)cc3)C2)n1)C(N)=O [Cpd No. 225, 6-(((S)-1-amino-1-oxopropan-2-yl)amino)-2-((S)-3-(4-(trifluoro-methyl)phenoxy)pyrrolidin-1-yl)pyrimidine-4-carboxamide]	–
3.23	C[C@H](Nc1cc(C(N)=O)nc(N2CC[C@@H](Oc3ccc(C(F)(F)F)cc3)C2)n1)C(N)=O [Cpd No. 226, 6-(((S)-1-amino-1-oxopropan-2-yl)amino)-2-((R)-3-(4-(trifluoromethyl)-phenoxy)pyrrolidin-1-yl)pyrimidine-4-carboxamide]	–
0.55	NC(=O)c1cc(O[C@H]2CCNC2=O)nc(-c2ccc(Oc3ccc(C(F)(F)F)cn3)cc2)n1 [Cpd No. 227, (S)-6-((2-oxopyrrolidin-3-yl)oxy)-2-(4-((5-(trifluoro-methyl)pyridin-2-yl)oxy)phenyl)pyrimidine-4-carboxamide]	Ki (hNav1.7; Table 7): 0.15 µM
1.1	C[C@H](Nc1cc(C(N)=O)nc(-c2ccc(Cc3ccc(C(F)(F)F)cn3)cc2)n1)C(N)=O [Cpd No. 228, (S)-6-((1-amino-1-oxopropan-2-yl)amino)-2-(4-((5-(trifluoro-methyl)pyridin-2-yl)methyl)-phenyl)pyrimidine-4-carboxamide]	Ki (hNav1.7; Table 7): 1.1 µM
0.58	NC(=O)c1cc(O[C@H]2CCNC2=O)nc(-c2ccc(Cc3ccc(C(F)(F)F)cn3)cc2)n1 [Cpd No. 229, (S)-6-((2-oxopyrrolidin-3-yl)oxy)-2-(4-((5-(trifluoromethyl)pyridin-2-yl)methyl)phenyl)pyrimidine-4-carboxamide]	Ki (hNav1.7; Table 7): 0.62 µM
1.72	NC(=O)c1cc(O[C@H]2CCNC2=O)nc(-c2ccc(Oc3ccc(C(F)(F)F)cc3CN3CCCC3)cc2)n1 [Cpd No. 230, (S)-6-((2-oxopyrrolidin-3-yl)oxy)-2-(4-(2-(pyrrolidin-1-ylmethyl)-4-(trifluoromethyl)-phenoxy)phenyl)pyrimidine-4-carboxamide]	Ki (hNav1.7; Table 7): 0.74 µM
> 20	NC(=O)c1cc(O[C@H]2CCNC2=O)nc(-c2ccc(Oc3ccc(C(F)(F)F)cc3)cc2CN2CCCCC2)n1 [Cpd No. 231, (S)-6-((2-oxopyrrolidin-3-yl)oxy)-2-(2-(piperidin-1-ylmethyl)-4-(4-(trifluoromethyl)-phenoxy)phenyl)pyrimidine-4-carboxamide]	–
10 to 20	NC(=O)c1cc(O[C@H]2CCNC2=O)nc(-c2ccc(Oc3ccc(C(F)(F)F)cc3)cc2CN2CCOCC2)n1 [Cpd No. 232, (S)-2-(2-(morpholinomethyl)-4-(4-(trifluoromethyl)-phenoxy)phenyl)-6-((2-oxopyrrolidin-3-yl)oxy)-pyrimidine-4-carboxamide]	–
10 to 20	Cn1cc(COc2ccc(-c3nc(N[C@H]4CCNC4=O)cc(C(N)=O)n3)cc2)cn1 [Cpd No. 233, (S)-2-(4-((1-methyl-1H-pyrazol-4-yl)methoxy)phenyl)-6-((2-oxopyrrolidin-3-yl)amino)-pyrimidine-4-carboxamide]	–
–	NC(=O)c1cc(N[C@H]2CCNC2=O)nc(N2C3CCC2CC(Oc2ccc(C(F)(F)F)cn2)C3)n1 (stereo partly drawn) [compound 140, 6-(((S)-2-oxopyrrolidin-3-yl)amino)-2-(3-((5-(trifluoromethyl)pyridin-2-yl)oxy)-8-azabicyclo[3.2.1]octan-8-yl)pyrimidine-4-carboxamide]	IC50 (human Nav1.7 [2]): 0.38 µM; Ki (hNav1.7; Table 6): 2.55 µM; Kd (hNav1.7; Table 6): 46.2 µM
–	NC(=O)c1cc(N[C@H]2CCNC2=O)nc(-c2ccc(Oc3ccc(C4CC4)cn3)cc2)n1 [compound 142, (S)-2-(4-((5-cyclopropylpyridin-2-yl)oxy)phenyl)-6-((2-oxopyrrolidin-3-yl)amino)pyrimidine-4-carboxamide]	IC50 (human Nav1.7 [2]): 0.064 µM; Ki (hNav1.7; Table 6): 0.3 µM; Kd (hNav1.7; Table 6): 26.8 µM
–	C[C@H](Oc1cc(C(N)=O)nc(-c2ccc(Oc3ccc(C(F)(F)F)cn3)cc2)n1)C(N)=O [compound 146, (S)-6-((1-amino-1-oxopropan-2-yl)oxy)-2-(4-((5-(trifluoromethyl)pyridin-2-yl)oxy)phenyl)pyrimidine-4-carboxamide]	IC50 (human Nav1.7 [2]): 0.52 µM; Ki (hNav1.7; Table 6): 1.25 µM; Kd (hNav1.7; Table 6): 18.3 µM

Compound	IC50 (human Nav1.7 [1]) [µM]	further results
Cn1cc(-c2ccc(-c3nc(N[C@H]4CCNC4=O)cc(C(N)=O)n3)cc2)c2ccc(C(F)(F)F)cc21 [Cpd No. 218, (S)-2-(4-(1-methyl-6-(trifluoromethyl)-1H-indol-3-yl)phenyl)-6-((2-oxopyrrolidin-3-yl)amino)pyrimidine-4-carboxamide]	4.03	–
NC(=O)c1cc(O[C@H]2CCNC2=O)nc(N2[C@@H]3CC[C@H]2C[C@@H](Oc2ccc(C(F)(F)F)cn2)C3)n1 [Cpd No. 224, 6-(((S)-2-oxopyrrolidin-3-yl)oxy)-2-((1R,3S,5S)-3-((5-(trifluoromethyl)pyridin-2-yl)oxy)-8-azabicyclo[3.2.1]octan-8-yl)pyrimidine-4-carboxamide]	1.01	Ki (hNav1.7; Table 7): 0.81 µM
